According to PubChem BioAssay (NCI):
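Cultured in 96-well plates, cells were exposed to test compound for 48 hours across five concentrations. GI50 = concentration required for 50% inhibition of growth. The concentration for full growth arrest is given as TGI.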

Tests used:
Test in all cases: DTP human tumour cell line panel, 48 h
CAKI-1 renal = tested on: CAKI-1 renal
HCC-2998 colon = tested on: HCC-2998 colon
HS 578T breast = tested on: HS 578T breast
IGROV1 ovarian = tested on: IGROV1 ovarian
LOX IMVI melanoma = tested on: LOX IMVI melanoma
SK-MEL-28 melanoma = tested on: SK-MEL-28 melanoma
SK-OV-3 ovarian = tested on: SK-OV-3 ovarian
UO-31 renal = tested on: UO-31 renal
HL-60(TB) leukemia = tested on: HL-60(TB) leukemia

SMILES	TGI (CAKI-1 renal)	TGI (HCC-2998 colon)	TGI (HS 578T breast)	TGI (IGROV1 ovarian)	TGI (LOX IMVI melanoma)	TGI (SK-MEL-28 melanoma)	TGI (SK-OV-3 ovarian)	TGI (UO-31 renal)	TGI (HL-60(TB) leukemia)	GI50 (CAKI-1 renal)	GI50 (HCC-2998 colon)	GI50 (HL-60(TB) leukemia)	GI50 (HS 578T breast)	GI50 (SK-MEL-28 melanoma)	GI50 (SK-OV-3 ovarian)	GI50 (UO-31 renal)
c1ccc(C2=Nn3c(CCCCCCCCc4nnc5n4N=C(c4ccccc4)CS5)nnc3SC2)cc1	> 100 µM	> 100 µM	> 100 µM	> 100 µM	> 100 µM	> 100 µM	85.6 µM	> 100 µM								
Cc1ccc(-c2c(C#N)c(-c3ccc([N+](=O)[O-])cc3)c(C#N)c(=O)n2NS(=O)(=O)c2ccccc2)cc1	> 100 µM	> 100 µM	33.1 µM	> 100 µM	83 µM	> 100 µM	> 100 µM									
COC(=O)[C@H](Cc1ccccc1)NC(=O)c1ccc(CNC(=O)/C=C/c2cccc(Oc3ccccc3)c2)cc1	58.1 µM	89.7 µM	46.3 µM	42.6 µM		23.9 µM	> 100 µM	> 100 µM								
N#Cc1c(C#N)c(-c2ccccc2)n(-c2ccccc2)c1N	> 100 µM		> 100 µM	> 100 µM	> 100 µM		> 100 µM	> 100 µM	> 100 µM							
COC(=O)C1(Cc2ccc3c(c2)CCC3)Cc2cc3c(cc2C1)CCC3		57.5 µM	> 100 µM	> 100 µM	42.3 µM	> 100 µM	> 100 µM	> 100 µM	77.8 µM							
COc1cc2c(cc1OC)C13CC[N+]4(C)CC5=CCOC6CC(=O)N2C1C6C5CC34[O-] (centres undefined)	> 100 µM		> 100 µM	> 100 µM	> 100 µM	> 100 µM	> 100 µM	> 100 µM	> 100 µM							
CC1=CC(=O)CC2(C)CCC(C(C)CC(=O)CC(C)C)CC12 (centres undefined)	30.2 µM		> 100 µM	72.5 µM	34.8 µM	72.9 µM		> 100 µM	43.2 µM							
O=c1n(Cc2ccccc2)c(=O)n2c(=O)n(Cc3ccccc3)c(=O)n12	> 100 µM	> 100 µM	> 100 µM		> 100 µM	> 100 µM	> 100 µM	> 100 µM	> 100 µM							
COc1cc(CNc2nc3cc(C(F)(F)F)ccc3nc2-c2ccccc2)cc(OC)c1OC	> 100 µM	52.4 µM	> 100 µM	> 100 µM	> 100 µM	> 100 µM		> 100 µM	70 µM							
O=C(O)CC(NC(=O)/C(=C/c1ccccc1O)NC(=O)c1ccccc1)C(=O)O (centres undefined)	> 100 µM	> 100 µM		> 100 µM	> 100 µM	> 100 µM	> 100 µM	> 100 µM	76.5 µM							
Nc1nc(Nc2ccc(Cl)cc2)sc1C(=O)c1cccs1			42.2 µM	> 100 µM	> 100 µM	> 100 µM	50 µM	95.9 µM	> 100 µM							
C=C1C(=O)OC2/C=C(/C)C3(O)OC(C)(CC(OC(=O)C(C)C)C12)CC3OC(C)=O (centres undefined)	7.18 µM	16.5 µM		36.6 µM	> 68.8 µM	> 53 µM	26.1 µM	22.2 µM	> 19.7 µM							
O=C(CCCN1CCC2(CC1)C(=NC1CCCCC1)NC(=O)N2c1ccccc1)c1ccc(F)cc1	> 100 µM	37.7 µM	88.4 µM	62.2 µM	30 µM	34.2 µM			57.4 µM							
O=C(CCc1cccc(O)c1)NCCCNC(=O)CCc1cccc(O)c1	> 100 µM	> 100 µM	> 100 µM	> 100 µM	> 100 µM	> 100 µM	> 100 µM	> 100 µM								
CC1(C)[C@@H](Cn2cnc3c(Cl)nc(N)nc32)CC[C@@]1(C)CO	> 100 µM	48.7 µM	44.9 µM		80.9 µM	> 100 µM	> 100 µM	15 µM								
C[C@]1(S(=O)(=O)c2ccccc2)C[C@H]2N(Cc3ccccc3)[C@@H]1CCC21OCCO1	> 100 µM		> 100 µM	> 100 µM	> 100 µM	> 100 µM	> 100 µM	> 100 µM	32.6 µM							
c1csc(-c2c3ccc(=[N+]4CCCCC4)cc-3oc3cc(N4CCCCC4)ccc23)c1	0.305 µM	0.14 µM	0.565 µM			0.293 µM	0.682 µM	0.277 µM	0.547 µM	0.131 µM	0.0391 µM	0.145 µM	0.0563 µM	0.143 µM	0.212 µM	0.136 µM
CC(C)(C)OC(=O)n1c(-c2ccccc2F)cc(=O)c2cc3c(cc21)OCO3	> 37.3 µM	> 32.3 µM	1.41 µM			> 100 µM										
